Data from ChEMBL document CHEMBL1201862, “PubChem BioAssay data set” (2004).
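All cell lines were grown in 96-well plates and treated with compound for 48 hours. GI50 marks 50% less growth.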 Calls of active or inactive are those of the source. Cut-off read from the data, not from the text of the source: active = GI50 up to about 1.1 µM and inactive = higher.

What was measured:
Experiment in all cases: NCI tumour cell line growth inhibition, 48 h
HT-29 = system: HT-29
SK-MEL-2 = system: SK-MEL-2
HCC 2998 = system: HCC 2998
HCT-15 = system: HCT-15
HOP-92 = system: HOP-92
OVCAR-8 = system: OVCAR-8
RPMI-8226 = system: RPMI-8226
T47D = system: T47D
CAKI-1 = system: CAKI-1
SK-MEL-5 = system: SK-MEL-5
MDA-N = system: MDA-N
EKVX = system: EKVX
COLO 205 = system: COLO 205
IGROV-1 = system: IGROV-1
KM12 = system: KM12
HOP-62 = system: HOP-62
M14 = system: M14
SF-295 = system: SF-295
TK-10 = system: TK-10
RXF 393 = system: RXF 393

Measured: GI50

COC(=O)[C@H](Cc1c[nH]c2ccccc12)NP(=O)(O)OCC1C=CC(n2cc(C)c(=O)[nH]c2=O)O1 (stereo partly drawn)
inactive: HT-29 > 100 µM | SK-MEL-2 > 100 µM | HCC 2998 > 100 µM | HOP-92 > 100 µM | OVCAR-8 > 100 µM | RPMI-8226 > 100 µM | T47D > 100 µM | CAKI-1 > 100 µM | SK-MEL-5 > 100 µM | MDA-N > 100 µM | EKVX > 100 µM | COLO 205 > 100 µM | IGROV-1 > 100 µM | KM12 > 100 µM | HOP-62 > 100 µM
> 100 µM: HCT-15

O=C1C2C=CC1C1C(=O)OC(=O)C21 (stereo not drawn)
> 100 µM: HCT-15
inactive: HT-29 > 100 µM | SK-MEL-2 > 100 µM | HCC 2998 > 100 µM | HOP-92 > 100 µM | M14 > 100 µM | OVCAR-8 > 100 µM | RPMI-8226 > 100 µM | SF-295 > 100 µM | T47D > 100 µM | CAKI-1 > 100 µM | SK-MEL-5 > 100 µM | MDA-N > 100 µM | EKVX > 100 µM | COLO 205 > 100 µM | TK-10 > 100 µM | IGROV-1 > 100 µM | KM12 > 100 µM | HOP-62 > 100 µM

NS(=O)(=O)c1nnc(/N=C(/CCC(=O)O)C(=O)O)s1
> 100 µM: HCT-15
inactive: HT-29 > 100 µM | SK-MEL-2 > 100 µM | HCC 2998 > 100 µM | HOP-92 > 100 µM | M14 > 100 µM | OVCAR-8 > 100 µM | RPMI-8226 > 100 µM | SF-295 > 100 µM | T47D > 100 µM | CAKI-1 > 100 µM | SK-MEL-5 > 100 µM | MDA-N > 100 µM | EKVX > 100 µM | COLO 205 > 100 µM | TK-10 > 100 µM | IGROV-1 > 100 µM | KM12 20.5 µM | HOP-62 > 100 µM

Cc1cc(Nc2ccc(S(=O)(=O)O)cc2)c2ccccc2n1
inactive: HT-29 > 100 µM | SK-MEL-2 > 100 µM | HCC 2998 > 100 µM | HOP-92 > 100 µM | M14 > 100 µM | OVCAR-8 > 100 µM | RPMI-8226 > 100 µM | SF-295 > 100 µM | T47D > 100 µM | CAKI-1 > 100 µM | SK-MEL-5 > 100 µM | MDA-N > 100 µM | EKVX > 100 µM | COLO 205 > 100 µM | TK-10 > 100 µM | IGROV-1 > 100 µM | KM12 > 100 µM | HOP-62 40.9 µM
> 100 µM: HCT-15

C[C@]12Cc3cnc(-c4ccccc4)nc3C[C@@H]1CC[C@@H]1[C@@H]2CC[C@@]2(C)[C@H]1CC[C@]2(C)O
inactive: HT-29 4.15 µM | SK-MEL-2 21 µM | HCC 2998 14.2 µM | HOP-92 22.8 µM | M14 11.1 µM | OVCAR-8 14.4 µM | RPMI-8226 5.06 µM | SF-295 14.8 µM | T47D 11 µM | CAKI-1 4.98 µM | SK-MEL-5 17.7 µM | MDA-N 16.4 µM | EKVX 25.2 µM | COLO 205 11.7 µM | TK-10 23.2 µM | IGROV-1 19.7 µM | KM12 13.9 µM | HOP-62 13.6 µM
9.44 µM: HCT-15

CN(C)c1ccc(/C=C2\N=C(c3ccccc3)N(c3ccc4c(c3)Sc3cc(N5C(=O)/C(=C/c6ccc(N(C)C)cc6)N=C5c5ccccc5)ccc3N4)C2=O)cc1
inactive: HT-29 54.7 µM | SK-MEL-2 18.6 µM | HCC 2998 19.6 µM | HOP-92 18.3 µM | M14 21.2 µM | OVCAR-8 18.1 µM | RPMI-8226 20.4 µM | SF-295 15.2 µM | T47D 19.6 µM | CAKI-1 17.9 µM | SK-MEL-5 17.9 µM | MDA-N 53.8 µM | EKVX 25.8 µM | COLO 205 > 100 µM | TK-10 17.2 µM | IGROV-1 18.1 µM | KM12 > 100 µM | HOP-62 13.7 µM
49.2 µM: HCT-15

O=C(c1ccccc1)c1ccc2[nH]c(-c3c(Cl)c(Cl)c(Cl)c(Cl)c3C(=O)N/N=C/c3cccc(Oc4ccccc4)c3)nc2c1
45.4 µM: HCT-15
inactive: HT-29 > 100 µM | SK-MEL-2 46.2 µM | HOP-92 55.7 µM | M14 > 100 µM | OVCAR-8 75.2 µM | RPMI-8226 > 100 µM | RXF 393 68.2 µM | SF-295 54.7 µM | T47D 36.1 µM | CAKI-1 > 100 µM | SK-MEL-5 90.6 µM | MDA-N 46.5 µM | EKVX > 100 µM | COLO 205 > 100 µM | TK-10 > 100 µM | IGROV-1 > 100 µM | KM12 > 100 µM | HOP-62 65.2 µM

O=C(O)c1cc(O)c2c(c1)Cc1cccc(O)c1C2=O
17.2 µM: HCT-15
inactive: HT-29 42.9 µM | HCC 2998 41.4 µM | HOP-92 17.2 µM | M14 23.4 µM | OVCAR-8 21.3 µM | RPMI-8226 21.9 µM | SF-295 20.3 µM | T47D 38.6 µM | SK-MEL-5 21.1 µM | MDA-N > 10 µM | EKVX 22.1 µM | COLO 205 24.2 µM | TK-10 34.4 µM | IGROV-1 > 10 µM | HOP-62 19.1 µM

CNS(=O)(=O)c1ccccc1C(=N)c1ccccc1
> 100 µM: HCT-15
inactive: HT-29 > 100 µM | SK-MEL-2 > 100 µM | HOP-92 > 100 µM | M14 > 100 µM | OVCAR-8 > 100 µM | RPMI-8226 > 100 µM | RXF 393 > 100 µM | SF-295 > 100 µM | T47D > 100 µM | CAKI-1 > 100 µM | SK-MEL-5 > 100 µM | MDA-N > 100 µM | EKVX > 100 µM | COLO 205 > 100 µM | TK-10 > 100 µM | IGROV-1 > 100 µM | KM12 > 100 µM | HOP-62 > 100 µM

CN(N=O)c1ccc(/C=C/c2ccnc3ccccc23)cc1
inactive: HT-29 43.3 µM | SK-MEL-2 > 100 µM | HOP-92 > 100 µM | M14 93.1 µM | OVCAR-8 58.1 µM | RXF 393 46.6 µM | SF-295 41.4 µM | T47D 50.4 µM | CAKI-1 42.3 µM | SK-MEL-5 37.1 µM | MDA-N 75.3 µM | EKVX 26.4 µM | COLO 205 39.3 µM | TK-10 29.4 µM | IGROV-1 49 µM | KM12 93.5 µM | HOP-62 78.3 µM
54.2 µM: HCT-15

O=C(C/N=C(\CN(c1ccccc1)c1ccccc1)Oc1c(Cl)cc(Cl)cc1Cl)n1cnc2ccccc21
active: RXF 393 < 0.01 µM
43.8 µM: HCT-15
inactive: HT-29 44.2 µM | HCC 2998 71.6 µM | HOP-92 59.6 µM | M14 > 100 µM | OVCAR-8 35.3 µM | RPMI-8226 44.6 µM | SF-295 > 100 µM | T47D 33.3 µM | SK-MEL-5 76 µM | MDA-N 59.8 µM | EKVX 50.7 µM | COLO 205 > 100 µM | TK-10 > 100 µM | IGROV-1 39.6 µM | KM12 96.6 µM | HOP-62 > 100 µM

C=CC(Br)(CBr)CCC(Br)C(C)(C)Cl (stereo not drawn)
active: RPMI-8226 0.579 µM
inactive: HT-29 1.53 µM | SK-MEL-2 8.73 µM | HCC 2998 6.22 µM | HOP-92 2.04 µM | M14 5.14 µM | OVCAR-8 4.42 µM | RXF 393 2.99 µM | SF-295 1.82 µM | T47D 1.67 µM | SK-MEL-5 7.76 µM | MDA-N 3.09 µM | EKVX 8.18 µM | COLO 205 2.21 µM | TK-10 2.72 µM | IGROV-1 5.31 µM | KM12 1.6 µM | HOP-62 3.78 µM
2.58 µM: HCT-15

O=C(CNc1ccccc1[N+](=O)[O-])Nn1c(-c2ccccc2)nc2ccccc2c1=O
19.9 µM: HCT-15
inactive: HT-29 17.5 µM | HCC 2998 13.5 µM | HOP-92 12.4 µM | M14 16.7 µM | OVCAR-8 33.8 µM | RPMI-8226 20.9 µM | RXF 393 20.1 µM | SF-295 20.6 µM | T47D 17.3 µM | SK-MEL-5 10.4 µM | MDA-N 19.9 µM | EKVX 19.6 µM | COLO 205 20.6 µM | TK-10 > 10 µM | IGROV-1 16.3 µM | KM12 > 10 µM | HOP-62 20.1 µM

O=C(CC(=O)Nc1ccccc1)N/N=C/c1cc(/N=N/c2ccc(Br)cc2)ccc1O
inactive: HCC 2998 3.25 µM | HOP-92 > 10 µM | M14 6.37 µM | OVCAR-8 3.93 µM | RPMI-8226 3.68 µM | T47D 4.38 µM | CAKI-1 3.61 µM | SK-MEL-5 8.79 µM | MDA-N 3.72 µM | EKVX 3.97 µM | COLO 205 3.93 µM | TK-10 4.2 µM | IGROV-1 4.21 µM | KM12 3.58 µM | HOP-62 5.3 µM
3.33 µM: HCT-15

CC(=O)/C=C1\Nc2sc(C)c(C)c2C(=O)S1
28.9 µM: HCT-15
inactive: HT-29 34.1 µM | SK-MEL-2 24.2 µM | HOP-92 > 100 µM | M14 97.7 µM | OVCAR-8 35.6 µM | RPMI-8226 38.6 µM | RXF 393 > 100 µM | SF-295 48 µM | T47D 47.2 µM | CAKI-1 65.3 µM | SK-MEL-5 41 µM | MDA-N 88.3 µM | EKVX 24.9 µM | COLO 205 > 100 µM | TK-10 80.4 µM | IGROV-1 29.6 µM | KM12 29.2 µM | HOP-62 89.7 µM
